Reference: a melting point compilation (Tetko et al.; mined from patent text by program, amines drawn as free bases though some values may be those of a salt)

Row | SMILES | melting point [°C]
1 | CCOC(=O)c1cnn2c1nc(N1CCCCC1)c1cnc3c(cnn3CC)c12 | 183 to 184
2 | CCCCOC(=O)N[C@H](C(=O)NCCc1ccc(OCC#Cc2ccc(Cl)cc2)c(OC)c1)C(C)C | 141 to 142
3 | Cc1cccc(-c2n[nH]cc2-c2ccc(F)c(-c3c[nH]cn3)c2)n1 | 229 to 233
4 | O=C(O)c1ccc(-n2ccc3ccccc32)cc1 | 222 to 224
5 | COc1cc(-c2nc(NC(=O)c3c(C)c4cc(C)ccc4n3CC(=O)O)sc2CCC2CCCCC2)c(OC)cc1Cl | 151 to 160
6 | Cn1cnc2ccc(N/C(=C3\C(=O)Nc4ccccc43)c3ccccc3)cc21 | 163 to 165
7 | CC(C(=O)O)(c1ccc(N2CCOCC2)cc1)c1ccc(N2CCOCC2)cc1 | 217 to 223
8 | CCOC(=O)C1C(=O)N(CC)c2cc3cc(C)oc3cc21 (centres undefined) | 82 to 90
9 | COc1cccc(OC)c1N(COCC(C)C)C(=O)CCl | 107 to 110
10 | Cc1c(-c2ccc(F)cc2)n(Cc2ccc(OCCBr)cc2)c2ccc(OCc3ccccc3)cc12 | 114 to 116
11 | O=Cc1nn(-c2ccccc2)c2c1CCC2 | 108 to 109
12 | O=C1NC(=O)C2(N1)C(=O)N(Cc1ccc(Cl)c(Cl)c1)c1ccc(Cl)cc12 (centres undefined) | 257 to 259
13 | CCCC1(COC)CCCSc2cc(/C=C/c3ccc(C(=O)O)cc3)ccc21 (centres undefined) | 169 to 170
14 | NNc1ccnc(-c2ccc([N+](=O)[O-])o2)n1 | 220 to 222
15 | CC(C)(C)OC(=O)N1C(=O)O[C@@H](c2cccc(Cl)c2)[C@H]1Cc1ccc(CC(F)(F)C(F)(F)F)cc1 (racemic) | 136 to 138
16 | Cc1cc(SCC#Cc2ccccc2C(F)(F)F)ccc1OCC(=O)O | 95 to 97
17 | N#Cc1ccccc1C(Cl)(Cl)Cl | 98.9 to 100
18 | CC(C)Oc1cc(-n2nc(C(F)F)n(C)c2=O)c(Cl)cc1Cl | 95 to 97
19 | Cc1nnc(-c2cc3c(-c4ccccc4Cl)coc3cn2)o1 | 162 to 163
20 | Cc1nn(C)c2nc(N(CC3CC3)C(=O)C3CC3)c(CN(Cc3cc(C(F)(F)F)cc(C(F)(F)F)c3)c3nnn(C)n3)cc12 | 120 to 122

Row | SMILES | melting point [°C]
21 | O=[N+]([O-])c1ccc2c(c1)OP(=O)(N(CCCl)CCCl)NC2 (centres undefined) | 123 to 126
22 | CN(C)Cc1nc(N)nc(N)c1-c1ccc(Cl)cc1Cl | 170 to 172
23 | C1=CCCCCN(CCc2nccc3c2[nH]c2ccccc23)CCCC1 | 77 to 82
24 | CC(C)c1ccc2c(c1)c(-c1ccccc1Cl)c(NC(=O)Nc1cccc(C(F)(F)F)c1)c(=O)n2C | 209 to 210
25 | CC(C)c1ccc(C2c3cc(N)ccc3OC2(C)C)cc1 (centres undefined) | 109 to 110
26 | O=C(O)C1=C(C(=O)Nc2ccc(Cl)cc2F)CCCC1 | 91 to 93
27 | Cc1c(C)c(N2CCN(c3ccc(CN(C)C)cc3)CC2)c(C)c2c1OC(C)(C)C2 | 134 to 138
28 | COc1ccc(C(=O)N2CCCC(=O)c3ccc(Cl)cc3CCC2=O)cc1 | 143
29 | Cc1cccc(-c2[nH]c(C(C)C)nc2-c2ccc(F)c(-c3ccc(OCCN4CCCC4=O)cc3)c2)n1 | 95
30 | CC(=O)Nc1c(Cl)cnn(-c2ccccc2)c1=O | 177 to 178
31 | COc1ccc2sn(C(C)(C)C)c(=O)c2c1 | 92 to 94
32 | COc1cccc2c1C(=O)N(CCl)S2(=O)=O | 169 to 174
33 | Nc1nc(N)nc(Cc2nc3ccccc3n2-c2ccccc2)n1 | 337 to 340
34 | C=CCNC(=O)N1CC(c2ccc(C(C)(C)C)cc2)C1 | 98 to 99
35 | CC(C)OC(=Cn1ccnc1)c1ccc(Cl)cc1Cl | 184 to 186
36 | CC(C(=S)c1cc(NC=O)ccn1)S(C)=O (centres undefined) | 132
37 | CS(=O)(=O)c1ccc(-n2ncc(C#N)c2-c2ccc(-c3ccco3)cc2)cc1F | 153 to 157
38 | Nc1nc(NC2CCCCC2)nc2c1ncn2C1C=CCCC1 (centres undefined) | 108 to 111
39 | CC(=O)NC12Oc3c(C(C)C)cc(C(C)C)cc3C1(O)C(=O)c1ccccc12 (centres undefined) | 217 to 219
